Assays:
[1] = Inhibition of PI3K
MCF7 = assay: Cytotoxicity against human MCF7 cells after 72 hrs by MTS/PMS assay; type: functional, cell-based; details: MCF7, 72 h
[2] = molecular target: PI3-kinase p110-alpha/p85-alpha (Homo sapiens, UniProt P42336); assay: Inhibition of human recombinant P110alpha/p85alpha using phosphatidyl inositol as substrate after 1 hr by ADP-Glo Kinase assay; type: protein-complex assay
[3] = Lipophilicity, log P of the compound; type: physicochemical; details: octanol/water

PI3-kinase p110-alpha/p85-alpha, sequence (P27986 whole entry): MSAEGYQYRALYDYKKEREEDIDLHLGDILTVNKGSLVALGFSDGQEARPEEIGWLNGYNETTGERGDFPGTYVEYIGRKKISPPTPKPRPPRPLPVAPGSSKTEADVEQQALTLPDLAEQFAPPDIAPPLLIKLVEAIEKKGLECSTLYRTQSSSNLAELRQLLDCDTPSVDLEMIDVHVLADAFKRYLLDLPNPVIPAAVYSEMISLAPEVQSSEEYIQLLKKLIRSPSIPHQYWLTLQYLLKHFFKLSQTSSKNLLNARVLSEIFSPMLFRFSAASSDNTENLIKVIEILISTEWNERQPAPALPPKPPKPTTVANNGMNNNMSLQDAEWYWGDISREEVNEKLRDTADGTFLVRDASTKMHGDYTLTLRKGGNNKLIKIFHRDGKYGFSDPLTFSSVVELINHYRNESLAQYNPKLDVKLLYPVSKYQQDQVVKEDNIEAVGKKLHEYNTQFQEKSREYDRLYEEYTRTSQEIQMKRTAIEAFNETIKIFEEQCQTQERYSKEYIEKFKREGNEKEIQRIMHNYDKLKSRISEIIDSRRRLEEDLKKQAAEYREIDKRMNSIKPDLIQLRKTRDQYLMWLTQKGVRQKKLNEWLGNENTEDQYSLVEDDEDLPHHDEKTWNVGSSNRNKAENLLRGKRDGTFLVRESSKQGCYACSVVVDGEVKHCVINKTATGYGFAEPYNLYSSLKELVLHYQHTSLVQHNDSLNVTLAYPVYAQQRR
PI3-kinase p110-alpha/p85-alpha, sequence (P42336 whole entry): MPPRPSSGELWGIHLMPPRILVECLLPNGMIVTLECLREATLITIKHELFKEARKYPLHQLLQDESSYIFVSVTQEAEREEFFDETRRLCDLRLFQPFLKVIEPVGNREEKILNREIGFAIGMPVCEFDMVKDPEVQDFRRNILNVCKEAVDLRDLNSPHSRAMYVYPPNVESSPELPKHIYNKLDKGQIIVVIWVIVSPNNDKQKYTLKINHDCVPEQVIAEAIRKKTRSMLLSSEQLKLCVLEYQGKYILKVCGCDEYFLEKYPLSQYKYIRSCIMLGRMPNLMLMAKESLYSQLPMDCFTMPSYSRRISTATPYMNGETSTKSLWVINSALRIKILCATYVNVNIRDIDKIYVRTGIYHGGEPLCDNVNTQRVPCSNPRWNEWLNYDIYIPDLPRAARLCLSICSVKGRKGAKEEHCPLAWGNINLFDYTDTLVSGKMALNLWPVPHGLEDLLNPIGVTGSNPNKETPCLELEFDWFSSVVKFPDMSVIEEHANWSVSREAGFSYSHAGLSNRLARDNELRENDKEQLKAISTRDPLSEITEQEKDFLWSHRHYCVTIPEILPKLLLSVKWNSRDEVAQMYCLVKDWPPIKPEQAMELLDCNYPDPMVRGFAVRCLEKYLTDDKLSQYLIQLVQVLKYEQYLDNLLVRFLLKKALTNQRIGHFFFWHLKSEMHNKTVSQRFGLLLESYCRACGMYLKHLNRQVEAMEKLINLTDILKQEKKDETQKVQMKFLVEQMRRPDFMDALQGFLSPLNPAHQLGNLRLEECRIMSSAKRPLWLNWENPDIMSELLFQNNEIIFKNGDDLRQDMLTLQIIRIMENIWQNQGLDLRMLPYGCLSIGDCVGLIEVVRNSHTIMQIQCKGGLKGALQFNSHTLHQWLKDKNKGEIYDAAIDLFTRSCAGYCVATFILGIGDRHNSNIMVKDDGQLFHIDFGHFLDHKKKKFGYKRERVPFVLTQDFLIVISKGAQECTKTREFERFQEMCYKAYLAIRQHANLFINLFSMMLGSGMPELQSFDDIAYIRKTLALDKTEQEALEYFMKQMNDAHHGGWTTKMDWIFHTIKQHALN

Structure (SMILES) | IC50 [1] [nM] | IC50 (MCF7) [µM] | IC50 [2] [nM] | logP [3]
COC[C@H]1OC(=O)c2coc3c2[C@@]1(C)C1=C(C3=O)[C@@H]2CCC(=O)[C@@]2(C)C[C@H]1OC(C)=O [WORTMANNIN] | 2 | > 100 |  | 
CO[C@@H]1C(=O)c2coc3c2[C@@](C)(c2ccc4c(c2C3=O)CCC4=O)[C@@H]1O [VIRIDIN] | 2 |  |  | 
C[C@]12CCC(=O)c3coc(c31)C(=O)[C@@H]1[C@@H]2CC[C@]2(C)C(=O)CC[C@@H]12 |  | 22.9 | 339 | 2.65
C[C@]12CCC(=O)c3coc(c31)C(=O)C[C@@H]2O (racemic) |  | > 100 | 178 | 0.58
C=CCN/C=C1/C(=O)CC[C@@]2(C)C1=C(O)C(=O)[C@@H]1[C@@H]2CC[C@]2(C)C(=O)CC[C@@H]12 |  | 37.7 | 271 | 

Reference: ChEMBL document CHEMBL2157974, “Viridin analogs derived from steroidal building blocks” (Bioorg Med Chem Lett, 2012)
